Test [1] has as its system Alzheimer's animal model (Aβ1-42 treated mice). The experiment in a line: Morris water maze test in Aβ1-42 Alzheimer's animal model. The format is in vivo, ICR mice. The conditions noted are these: compared to mice treated only with Aβ1-42; for learning ability (finding submerged platform during training session): CBDA 6.25 μM or THCA 12.5 μM, 3 μL/mouse into hippocampus, FIGS. 11 and 12; for time spent in the target quadrant (probe test) / time spent in the platform area (probe test) / number of times crossed the platform area (probe test): probe test on the 5th day; for time spent in the target quadrant (probe test): FIG. 13A; for time spent in the platform area (probe test): FIG. 13B; for number of times crossed the platform area (probe test): FIG. 13C. The method, then: (§1) Female ICR mice (8 weeks old) used in the experiment were purchased from Coretech (Pyeongtaek, Korea). Mice were housed in the animal care facility of the Korea Institute of Science and Technology (KIST) (temperature 22±2° C., humidity 40-60%, 12-hour light/dark cycle). Mice were housed in an environment with free access to food and water. All animal experiments were conducted in accordance with the protocol approval of the Animal Ethics Committee of our institution.
(§2) Next, to create an animal model, mice were randomly selected and divided into four groups as follows: PBS treated group (PBS+PBS), Aβ1-42 treated group (Aβ1-42 +PBS) (Alzheimer's animal model), CBDA treated group (Δβ1-42+CBDA (6.25 µM, 3 μL/mouse)), and THCA treated group (Δβ1-42+THCA (12.5 μM, 3 μL/mouse)).
(§3) After anesthetizing the isolated mice by intraperitoneal (i.p.) injection of avertin (250 mg/kg), the mice were fixed in a stereotaxic apparatus, and CBDA, THCA, Aβ1-42, or PBS (3 μl/15 min/mouse) were gradually delivered to the hippocampus using a Hamilton syringe (coordinates of bregma: mediolateral (ML)=1.30 mm, anteroposterior (AP)=−2.00 mm, dorsoventral=−2.20 mm).
Specifically, a circular tank (diameter 90 cm, height 50 cm, water temperature 22 ±2° C.) was used for the test, and the tank consisted of four quadrants filled with water. An escape platform (diameter 6 cm, height 29 cm) was submerged 1 cm below the water surface in the center of one of the four quadrants. Experimental mice were trained for 4 days to learn and memorize visual cues placed outside the tank indicating the platform location. The swimming paths of the experimental mice were recorded with a camera connected to a video recorder and path tracking software (EthoVision; Noldus Information Technology, Wageningen, The Netherlands). Four tests were conducted daily during the 4-day training period. During each trial, the experimental mice were allowed 60 seconds to find the hidden platform and an additional 30 seconds to remain on the platform. […] The average time it took each experimental mouse to find the platform (average escape latency) was recorded. Probe tests were conducted 4 days later in the same manner without the platform. Each experimental mouse was allowed to move freely for 60 seconds, which was recorded. Videos were analyzed using tracking software (EthoVision; Noldus Information Technology, Wageningen, The Netherlands) to calculate the time spent in the target quadrant area and the number of crossings in the platform area.

Test [2] has as its system amyloid beta (Aβ). The test can be described thus: Western blot of Aβ in hippocampal tissues of animal model. The test is classed as in vivo, ICR mice. The settings on record: day 19; compared to Aβ1-42 treated group; FIG. 15. The method, then: (§4) To conduct Western blotting, tissues were homogenized in radioimmunoprecipitation assay buffer (Cell Signaling) to acquire tissue lysates. Tissue protein concentrations were determined using the Bio-Rad protein assay (Bio-Rad, Hercules, CA, USA), and Western blot analysis was conducted using 80-120 μg of protein. Next, the Western blotting samples prepared using the proteins were separated using 12% SDS-PAGE and transferred to a polyvinylidene fluoride membrane (PVDF) (Merck Millipore, Burlington, MA, USA; 0.4 μm). The PVDF was blocked with tris-buffered saline including 5% bovine serum albumin and Tween-20, and incubated with primary antibodies overnight at 4° C. After primary antibody incubation, the samples were incubated with HRP-conjugated secondary antibody (Sigma; 1:5000) for 1 hour at room temperature, and immunodetection was conducted using an enhanced chemiluminescence detection kit (GE Healthcare, Chicago, IL, USA).
Specifically, hippocampal tissues were acquired on day 19 from the animal models created in Example 7 above (PBS treated group, Aβ1-42 treated group, CBDA treated group, and THCA treated group), and Western blot analysis was conducted on the hippocampal tissues to evaluate the expression levels of APP (Amyloid Precursor Protein), polymeric Aβ, and oligomeric Aβ.

The subject of test [3] is amyloid beta (Aβ). The test can be described thus: Western blotting of Aβ expression in Aβ1-42-treated primary neuronal cells. The test is classed as cell-based, ICR mice. The settings on record: with Aβ1-42 (5 μM), 24 hours; for expression level of oligomeric Aβ / expression level of polymeric Aβ: CBDA (6 μM) or THCA (5 μM), FIG. 6; for expression level of AB: compared to Aβ1-42 alone, FIG. 5. The method, then: Specifically, primary neuronal cells derived from ICR mice were cultured for 6 days, and then treated with CBDA, THCA, THC, or CBN compounds while treating with Aβ1-42 (5 μM), and treated together for 24 hours. Next, Western blotting was conducted to confirm the expression levels of APP (Amyloid Precursor Protein), polymeric Aβ, and oligomeric AB in the cells.
as §4

For test [4], the system named is BDNF (brain-derived neurotrophic factor). The experiment in a line: Western blot of BDNF in hippocampal tissues of animal model. The test is classed as in vivo, ICR mice. The settings on record: day 19; compared to Aβ1-42 treated group; FIG. 17. The method, then: as §4
Specifically, hippocampal tissues were acquired on day 19 from the animal models created in Example 7 above (PBS treated group, Aβ1-42 treated group, CBDA treated group, and THCA treated group), and Western blot analysis was conducted on the hippocampal tissues to evaluate the expression levels of BDNF, p-CREB, and p-TrKB.

In test [5] the test system is Alzheimer's animal model (Aβ1-42 treated mice). The experiment in a line: Object location test (OLT) in Aβ1-42 Alzheimer's animal model. The settings on record: compared to mice treated with only Aβ1-42; FIG. 14. The test is classed as in vivo, ICR mice. The method, then: as §1, §2, §3
First, the Novel Object Recognition Test (NOR) was conducted to examine a natural tendency of the experimental mice to explore novel stimuli. For this purpose, during the habituation session conducted 2 days before the test, the mice were allowed to explore the test environment consisting of an opaque custom-made Plexiglas box (35 cm×45 cm×25 cm) for 10 minutes. The sample object phase was conducted 24 hours later. Two identical white circular cylinders (sample objects) were placed on opposite edges of the test environment, and mice were given access to the objects for 10 minutes. After 4 hours (novel object stage), one of the sample objects in the test environment was replaced with a similarly sized novel object (colored miniature animal), and the mouse was allowed to contact this novel arrangement for 5 minutes. The time when the mouse's nose stayed <1 cm away from the object was considered the time the mouse explored the object, excluding the time when the mouse stood on the object. The identification rate was calculated as the time spent exploring the novel object relative to the time spent exploring the two objects.
Additionally, for the object location test (OLT), it was conducted in the same manner as the novel object recognition test described above, but on the last day of the object location test, one of the two sample objects was moved to a different location and the test was conducted.

Consider `C=C(C)[C@@H]1CCC(C)=C[C@H]1c1c(O)cc(CCCCC)c(C(=O)O)c1O` [CBDA], for which, in test [1], the “learning ability (finding submerged platform during training session)” value is recorded as “significantly enhanced”, the “time spent in the target quadrant (probe test)” value was “spent more time”, the “time spent in the platform area (probe test)” value is “spent more time” and the “number of times crossed the platform area (probe test)” value is “increased”. Further, the “expression level of Aβ in hippocampal tissues” value in the test on amyloid beta (Aβ) [2] was “significantly reduced”. Also, in the test on amyloid beta (Aβ) [3], the “expression level of oligomeric Aβ” value is listed as “significantly reduced”, the “expression level of polymeric Aβ” value is “significantly reduced” and the “expression level of AB” value is listed as “significantly reduced”. In addition, in test [4], the “expression level of BDNF in hippocampal tissues” value is reported as “significantly increased”. Further, in test [5], the “identification rate (OLT)” value is listed as “significantly increased” and the “time investigating the object moved to a different location” value is listed as “spent more time”.
With `CCCCCc1cc2c(c(O)c1C(=O)O)[C@@H]1C=C(C)CC[C@H]1C(C)(C)O2` [THCA, (6aR, 10aR)-1-Hydroxy-6,6,9-trimethyl-3-pentyl-6a,7,8,10a-tetrahydro-6H-benzo[c]chromene-2-carboxylic acid], in test [1], the “learning ability (finding submerged platform during training session)” value is reported as “significantly enhanced”, the “time spent in the target quadrant (probe test)” value is recorded as “spent more time”, the “time spent in the platform area (probe test)” value is on record as “spent more time” and the “number of times crossed the platform area (probe test)” value is listed as “increased”. Moreover, in the test on amyloid beta (Aβ) [2], the “expression level of Aβ in hippocampal tissues” value was “significantly reduced”. In the test on amyloid beta (Aβ) [3], the “expression level of oligomeric Aβ” value is listed as “significantly reduced”, the “expression level of polymeric Aβ” value is reported as “significantly reduced” and the “expression level of AB” value is given as “significantly reduced”. For the same molecule, the “expression level of BDNF in hippocampal tissues” value in test [4] is given as “significantly increased”. Besides, in test [5], the “identification rate (OLT)” value is listed as “significantly increased” and the “time investigating the object moved to a different location” value was “spent more time”.

The values above are taken from patent publication US20260000685A1, “PHARMACEUTICAL COMPOSITION FOR PREVENTING OR TREATING DEGENERATIVE BRAIN DISEASES, COMPRISING CANNABINOIDS AS ACTIVE INGREDIENT, AND USES THEREOF” (NEOCANNBIO CO., LTD., priority 2022, published 2026).
